pIC50: −log10 of the molar value.
Legend:
ENT1 = biological target: T1, ENT1 (Homo sapiens, UniProt Q99808); test: Wash-out reversibility of [3H]uridine uptake inhibition in PK15NTD/ENT1 cells; type: cell-based; conditions: 50 µM, incubation 1–60 min, washed five times
T1 construct: expressed in transfected cells
T1 sequence (Q99808 1-456): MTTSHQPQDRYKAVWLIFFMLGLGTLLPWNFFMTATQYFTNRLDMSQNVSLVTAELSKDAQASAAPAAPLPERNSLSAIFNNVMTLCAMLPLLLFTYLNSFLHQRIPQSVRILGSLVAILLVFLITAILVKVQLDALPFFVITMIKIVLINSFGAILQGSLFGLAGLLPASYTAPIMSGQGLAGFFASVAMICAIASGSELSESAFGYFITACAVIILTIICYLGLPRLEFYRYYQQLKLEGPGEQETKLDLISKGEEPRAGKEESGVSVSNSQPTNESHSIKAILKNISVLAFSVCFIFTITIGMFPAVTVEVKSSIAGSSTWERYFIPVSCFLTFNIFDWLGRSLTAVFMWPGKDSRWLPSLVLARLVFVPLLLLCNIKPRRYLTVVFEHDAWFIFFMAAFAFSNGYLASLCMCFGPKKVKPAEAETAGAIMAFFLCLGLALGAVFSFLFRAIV
Protocol: To determine whether the inhibitory effects of compound 3c were reversible or irreversible, PK15NTD/ENT1 and PK15NTD/ENT2 cells were incubated with 50 µM of compound 3c for different time periods (1–60 min). The cells were then washed five times with buffer. After wash-out for every single time [^3H]uridine uptake was measured. […] The longer the incubation time with compound 3c, the more difficult it was to wash-out the inhibitory effects of compound 3c.
FIGURE 6 Reversibility of the inhibitory effects of compound 3c on ENT1 and ENT2 (A) PK15NTD/ENT1 and (B) PK15NTD/ENT2 cells were incubated with 50 μM of compound 3c or a vehicle (0.5% DMSO, as a control) for different time (0–60 min) The cells were then washed five times. After wash-out for every single time [^3H]uridine uptake (1 μM, 2 μCi/ml) was measured. Data are presented as mean ± SE of three experiments. ^* p < 0.05 compared with the fifth wash.

ENT2 = biological target: T2, ENT2 (Homo sapiens, UniProt Q14542); test: [3H]uridine uptake in PK15NTD/ENT2 cells; type: cell-based; conditions: [3H]uridine 1 μM, 1 min, PK15NTD/ENT2 cells; read-out: IC50 against ENT2
T2 construct: expressed in transfected cells
T2 sequence (Q14542 1-456): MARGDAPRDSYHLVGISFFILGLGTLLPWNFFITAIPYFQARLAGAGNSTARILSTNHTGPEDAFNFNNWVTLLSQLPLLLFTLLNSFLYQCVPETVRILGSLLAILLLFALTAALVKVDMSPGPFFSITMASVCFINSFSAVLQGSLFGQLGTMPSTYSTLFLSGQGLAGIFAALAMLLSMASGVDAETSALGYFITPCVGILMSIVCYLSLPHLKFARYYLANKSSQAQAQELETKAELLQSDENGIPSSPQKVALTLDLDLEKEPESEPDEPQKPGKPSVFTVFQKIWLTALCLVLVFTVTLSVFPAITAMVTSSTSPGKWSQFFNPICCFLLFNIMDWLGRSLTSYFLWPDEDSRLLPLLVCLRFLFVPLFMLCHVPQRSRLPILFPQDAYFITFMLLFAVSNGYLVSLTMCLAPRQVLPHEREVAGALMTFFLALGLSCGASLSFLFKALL
Protocol: Nucleoside transporter-deficient porcine kidney fibroblast cells (PK15NTD) stably transfected with cloned human ENT1 or ENT2 ([Ward et al., 2000]) were used as the in vitro models. The cells were cultured in Dulbecco’s Modified Eagle’s Medium (DMEM) supplemented with 10% (v/v) foetal bovine serum, 0.5 mg/ml geneticin, 100 units/ml penicillin, 100 μg/ml streptomycin and 0.25 μg/ml of amphotericin B at 37°C in 5% CO2/95% air.
The cells were incubated with different concentrations of FPMINT analogues (from 10 nM to 100 μM) containing [^3H]uridine (2 μCi/ml, 1 μM) for 1 min. Passive uridine uptake was determined by incubating the cells in HEPES-buffered Ringer’s solution containing [^3H]uridine in the presence of 0.5 mM NBMPR. The cells were rapidly washed five times with ice-cold phosphate-buffered saline (PBS). After air-drying, the cells were solubilised by overnight incubation in 500 μl of 5% Triton-X100. Next, 300 μl of the cell lysates were mixed with 2 ml of scintillation liquid. The radioactivity of each sample was quantified by a scintillation counter. The protein content in each well was determined spectrophotometrically using a commercial bicinchoninic acid assay (Pierce Biochemicals, Rockford, IL). Uptake values were expressed as picomoles of [^3H]uridine per milligram of cellular protein per minute.
All data were analysed by GraphPad Prism software (San Diego, CA, United States). Data are expressed as mean ± standard error (SE) of three experiments performed in triplicate. The IC50 values were determined from the dose-response curves fitted with a logistic function. For the kinetic study of [^3H]uridine uptake, apparent K m and V max values were determined from the Michaelis-Menten equation, and K i was determined from the X-intercept of linear regression. Analysis of variance and Student’s t-test were performed for multiple and paired variables, respectively. p values of <0.05 were considered to be statistically significant.

In the case of `Cc1cccc(Nc2nc(N)nc(CN3CCN(c4ccc(F)cc4)CC3)n2)c1` [Compound 3c], the “reversibility of inhibitory effect on ENT1 by washing” value (ENT1) was “only partially reversed by washing” and the pIC50 (ENT2) was 6.24.

Reference: publication PMC8899516, “Structure-Activity Relationship Studies of 4-((4-(2-fluorophenyl)piperazin-1-yl)methyl)-6-imino-N-(naphthalen-2-yl)-1,3,5-triazin-2-amine (FPMINT) Analogues as Inhibitors of Human Equilibrative Nucleoside Transporters” (Frontiers in Pharmacology, 2022)
